ChEMBL document CHEMBL6103591, “Discovery of naphthoquinone-furo-piperidone derivatives as dual targeting agents of STAT3 and NQO1 for the treatment of breast cancer” (Eur J Med Chem, 2025)
The source made the active and inactive calls. The calls are words filed in the database; no cut-off is given here.

Tests used:
MDA-MB-231 [1] = test: Effect on STAT1 expression level in human MDA-MB-231 cells at 0.6 to 2.5 uM incubated for 24 hrs by Western blot analysis; format: functional, cell-based; conditions: dose 0.6-2.5 µM
Mus musculus = test: In vivo inhibition of STAT3 in female BALB/c nude mouse xenografted with human MDA-MB-231 cells assessed as decrease in p-STAT3 level in tumor tissue at 10 mg/kg, ip administered daily and measured every 2 days for 21 days by IHC staining analysis; format: functional, organism-based; conditions: time 21.0 day
MCF7 [2] = test: Induction of DNA damage in human MCF7 cells at 1.25 uM incubated for 24 hrs in presence of DIC by fluorescence microscopy based alkaline comet assay; format: functional, cell-based
[3] = target: T1, Signal transducer and activator of transcription 1-alpha/beta (Homo sapiens) (UniProt P42224); test: Inhibition of STAT1 phosphorylation at Tyr701 residue in human MDA-MB-231 cells at 0.6 to 2.5 uM incubated for 24 hrs by Western blot analysis; format: cell-based; conditions: dose 0.6-2.5 µM
T1 sequence (whole entry): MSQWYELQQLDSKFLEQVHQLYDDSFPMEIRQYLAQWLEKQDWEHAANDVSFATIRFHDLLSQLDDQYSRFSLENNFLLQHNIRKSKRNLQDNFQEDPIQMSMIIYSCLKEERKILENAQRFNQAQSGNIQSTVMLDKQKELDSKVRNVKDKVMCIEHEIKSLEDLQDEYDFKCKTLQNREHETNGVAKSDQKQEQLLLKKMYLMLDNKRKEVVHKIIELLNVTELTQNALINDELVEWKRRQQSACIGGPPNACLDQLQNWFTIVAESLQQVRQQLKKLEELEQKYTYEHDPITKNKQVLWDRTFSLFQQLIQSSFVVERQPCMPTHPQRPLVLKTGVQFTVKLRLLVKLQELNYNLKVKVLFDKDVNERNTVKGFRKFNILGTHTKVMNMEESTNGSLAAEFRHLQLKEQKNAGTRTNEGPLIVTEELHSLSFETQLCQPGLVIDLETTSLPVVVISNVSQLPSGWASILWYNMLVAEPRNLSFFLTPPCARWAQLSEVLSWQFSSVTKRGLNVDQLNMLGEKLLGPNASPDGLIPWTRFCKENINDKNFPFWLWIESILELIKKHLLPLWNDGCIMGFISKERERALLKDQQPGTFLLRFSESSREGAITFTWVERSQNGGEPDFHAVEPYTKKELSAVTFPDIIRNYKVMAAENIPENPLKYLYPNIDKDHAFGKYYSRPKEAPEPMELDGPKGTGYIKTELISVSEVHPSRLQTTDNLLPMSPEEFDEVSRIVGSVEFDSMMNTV

MDA-MB-468 [4] = test: Induction of apoptosis in human MDA-MB-468 cells assessed as increase in Bax level at 1.5 to 3 uM by Western blotting analysis; format: functional, cell-based; conditions: dose 1.5-3 µM
MDA-MB-231 [5] = test: Induction of apoptosis in human MDA-MB-231 cells assessed as increase in cleaved-caspase 3 level at 1.5 to 3 uM by Western blotting analysis; format: functional, cell-based; conditions: dose 1.5-3 µM
MDA-MB-468 [6] = test: Induction of apoptosis in human MDA-MB-468 cells assessed as increase in cleaved PARP level at 1.5 to 3 uM by Western blotting analysis; format: functional, cell-based; conditions: dose 1.5-3 µM, time 24.0 hrs
[7] = target: T2, Signal transducer and activator of transcription 3 (Homo sapiens, UniProt P40763); test: Inhibition of STAT3 in human MDA-MB-231 cells assessed as downregulation of survivin expression measured after 24 hrs by Western blot analysis; format: cell-based; conditions: dose 0.6-2.5 µM
[8] = target: T2, Signal transducer and activator of transcription 3; test: Inhibition of STAT3 in human MDA-MB-231 cells assessed as downregulation of c-Myc expression measured after 24 hrs by Western blot analysis; format: cell-based; conditions: dose 0.6-2.5 µM
MDA-MB-468 [9] = test: Inhibition of colony formation in human MDA-MB-468 cells at 3 uM incubated for 10 to 15 days by crystal violet staining based microscopic analysis; format: functional, cell-based; conditions: time 10-15 day
[10] = target: T2, Signal transducer and activator of transcription 3; test: Inhibition of phosphorylated STAT3 nuclear translocation in human MDA-MB-231 cells incubated for 6 hrs by immunofluorescence assay; format: cell-based; conditions: dose 1.5-3 µM
MDA-MB-468 [11] = test: Induction of apoptosis in human MDA-MB-468 cells assessed as increase in cleaved-caspase 3 level at 1.5 to 3 uM by Western blotting analysis; format: functional, cell-based; conditions: dose 1.5-3 µM
MDA-MB-231 [12] = test: Induction of apoptosis in human MDA-MB-231 cells assessed as increase in Bax level at 1.5 to 3 uM by Western blotting analysis; format: functional, cell-based; conditions: dose 1.5-3 µM
MDA-MB-231 [13] = test: Antitumor activity against human MDA-MB-231 cells xenografted in female BALB/c nude mouse assessed as reduction in tumor weight at 10 mg/kg, ip administered daily and measured every 2 days for 21 days; format: functional, organism-based; conditions: time 21.0 day
MDA-MB-231 [14] = test: Antiproliferative activity against human MDA-MB-231 cells transfected with shSTAT3 RNA at 1.5 uM incubated for 24 hrs by MTT assay; format: functional, cell-based
MDA-MB-231 [15] = test: Effect on STAT5 expression level in human MDA-MB-231 cells at 0.6 to 2.5 uM incubated for 24 hrs by Western blot analysis; format: functional, cell-based; conditions: dose 0.6-2.5 µM
[16] = target: T2, Signal transducer and activator of transcription 3; test: Inhibition of phosphorylated STAT3 nuclear translocation in human MDA-MB-468 cells incubated for 6 hrs by immunofluorescence assay; format: cell-based; conditions: dose 1.5-3 µM
MDA-MB-231 [17] = test: Induction of apoptosis in human MDA-MB-231 cells assessed as increase in cleaved PARP level at 1.5 to 3 uM by Western blotting analysis; format: functional, cell-based; conditions: dose 1.5-3 µM
[18] = target: T2, Signal transducer and activator of transcription 3; test: Inhibition of STAT3 in human MDA-MB-231 cells assessed as downregulation of Cyclin-D1 expression measured after 24 hrs by Western blot analysis; format: cell-based; conditions: dose 0.6-2.5 µM
MDA-MB-468 [19] = test: Antiproliferative activity against human MDA-MB-468 cells transfected with shSTAT3 RNA at 1.5 uM incubated for 24 hrs by MTT assay; format: functional, cell-based
MDA-MB-231 [20] = test: Inhibition of colony formation in human MDA-MB-231 cells at 3 uM incubated for 10 to 15 days by crystal violet staining based microscopic analysis; format: functional, cell-based; conditions: time 10-15 day
MDA-MB-231 [21] = test: Antitumor activity against human MDA-MB-231 cells xenografted in female BALB/c nude mouse assessed as increase in TUNEL-positive cells in tumor tissue at 10 mg/kg, ip administered daily and measured every 2 days for 21 days by immunofluorescence analysis; format: functional, organism-based; conditions: time 21.0 day
MCF7 [22] = test: Induction of DNA damage in human MCF7 cells at 1.25 uM incubated for 24 hrs by fluorescence microscopy based alkaline comet assay; format: functional, cell-based
MDA-MB-231 [23] = test: Antimetastatic activity against human MDA-MB-231 cells assessed as reduction in cell invasion incubated for 24 hrs by crystal violet staining based transwell invasion assay; format: functional; conditions: dose 0.1875-3 µM
MDA-MB-231 [24] = test: Antitumor activity against human MDA-MB-231 cells xenografted in female BALB/c nude mouse assessed as reduction in tumor volume at 10 mg/kg, ip administered daily and measured every 2 days for 21 days; format: functional, organism-based; conditions: time 21.0 day
MCF7 [25] = test: Induction of ROS generation in NQO1-rich human MCF7 cells assessed as increase in intracellular ROS level by DCFH-DA staining based confocal microscopic analysis; format: functional, cell-based; conditions: dose 1.25-2.5 µM
MDA-MB-231 [26] = test: Antimetastatic activity against human MDA-MB-231 cells assessed as reduction in cell migration incubated for 24 hrs by crystal violet staining based transwell assay; format: functional; conditions: dose 0.1875-3 µM
MCF7 [27] = test: Induction of ROS generation in NQO1-rich human MCF7 cells assessed as increase in intracellular ROS level at 1.25 uM in presence of DIC by DCFH-DA staining based confocal microscopic analysis; format: functional, cell-based
MDA-MB-231 [28] = test: Inhibition of STAT5 phosphorylation at Tyr694 residue in human MDA-MB-231 cells at 0.6 to 2.5 uM incubated for 24 hrs by Western blot analysis; format: cell-based; conditions: dose 0.6-2.5 µM
[29] = target: T2, Signal transducer and activator of transcription 3; test: Inhibition of STAT3 activation in human MDA-MB-231 cells assessed as reduction in STAT3 phosphorylation at Tyr705 residue at 1 uM measured after 24 hrs by Western blot analysis relative to control; format: cell-based

T2 sequence (P40763 whole entry): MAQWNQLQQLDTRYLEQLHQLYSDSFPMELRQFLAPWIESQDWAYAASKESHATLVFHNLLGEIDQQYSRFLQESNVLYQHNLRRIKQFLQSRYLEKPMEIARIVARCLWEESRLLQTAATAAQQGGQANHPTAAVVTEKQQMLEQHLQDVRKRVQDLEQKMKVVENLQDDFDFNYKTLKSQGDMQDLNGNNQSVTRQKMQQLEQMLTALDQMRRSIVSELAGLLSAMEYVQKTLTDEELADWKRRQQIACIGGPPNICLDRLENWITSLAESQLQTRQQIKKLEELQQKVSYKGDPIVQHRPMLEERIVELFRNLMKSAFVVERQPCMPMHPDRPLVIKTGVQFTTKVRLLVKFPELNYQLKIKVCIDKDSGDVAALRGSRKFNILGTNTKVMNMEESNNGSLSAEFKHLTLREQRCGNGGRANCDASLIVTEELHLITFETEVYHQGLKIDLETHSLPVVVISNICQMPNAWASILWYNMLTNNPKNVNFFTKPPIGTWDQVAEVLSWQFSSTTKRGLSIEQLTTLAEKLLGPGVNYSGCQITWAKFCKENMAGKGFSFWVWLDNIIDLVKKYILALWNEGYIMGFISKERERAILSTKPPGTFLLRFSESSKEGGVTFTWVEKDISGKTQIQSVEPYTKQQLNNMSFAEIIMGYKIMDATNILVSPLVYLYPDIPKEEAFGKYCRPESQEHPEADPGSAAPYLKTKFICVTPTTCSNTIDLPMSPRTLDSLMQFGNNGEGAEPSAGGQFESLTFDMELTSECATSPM

O=C1C(=O)c2c(oc3c2CCN(CCN2CCCCC2)C3=O)-c2ccccc21
Activity (MDA-MB-231 [1]): inactive
inhibition (Mus musculus): Active
Activity (MCF7 [2]): inactive
inhibition [3]: inactive
Activity (MDA-MB-468 [4]): Active
Activity (MDA-MB-231 [5]): Active
Activity (MDA-MB-468 [6]): Active
inhibition [7]: Dose-dependent-effect
inhibition [8]: Dose-dependent-effect
inhibition (MDA-MB-468 [9]): Active
inhibition [10]: Dose-dependent-effect
Activity (MDA-MB-468 [11]): Active
Activity (MDA-MB-231 [12]): Active
Activity (MDA-MB-231 [13]): Active
Activity (MDA-MB-231 [14]): Active; Less Sensitivity Observed
Activity (MDA-MB-231 [15]): inactive
inhibition [16]: Dose-dependent-effect
Activity (MDA-MB-231 [17]): Active
inhibition [18]: Dose-dependent-effect
Activity (MDA-MB-468 [19]): Active; Less Sensitivity Observed
inhibition (MDA-MB-231 [20]): Active
Activity (MDA-MB-231 [21]): Active
Activity (MCF7 [22]): Active
Activity (MDA-MB-231 [23]): Dose-dependent-effect
Activity (MDA-MB-231 [24]): Active
Activity (MCF7 [25]): Dose-dependent-effect
Activity (MDA-MB-231 [26]): Dose-dependent-effect
Activity (MCF7 [27]): inactive
inhibition (MDA-MB-231 [28]): inactive
inhibition [29]: Active
